Assay results: patent US6699970B2, “Mutacin I biosynthesis genes and proteins” (priority 2000, dated 2004)

Key:
Group A streptococci = assay: antimicrobial spectrum assay; type: cell-based; conditions: comparison of mutacin I and mutacin III
pneumococci = assay: antimicrobial spectrum assay; type: cell-based; conditions: comparison of mutacin I and mutacin III
enterococci = assay: antimicrobial spectrum assay; type: cell-based; conditions: comparison of mutacin I and mutacin III
[1] = reverse-phase HPLC analysis (hydrophobicity); type: physicochemical; conditions: from acetonitrile concentration at elution
Excerpt: For purification, the crude extract of mutacin I (SEQ ID No: 2) was applied to a Source 15RPC column and eluted with a fragmented gradient A (0.1% TFA) and B (0.085% TFA in 60% acetonitrile) using a LKB Purifier (Amersham Pharmacia Biotech, Piscataway, N.J.). The active fractions were pooled and dried in a lyophilizer. The pellet was redissolved in 0.25% TFA and subjected to a second round purification using a fragmented gradient of buffer A (0.1% TFA) and B (0.085% TFA in 80% methanol). The single active peak fraction was collected, dried in a lyophilizer, and used for sequence analysis and electrospray ionization mass spectrometry (EIMS).

[2] = tested on: gram-positive bacteria including the multidrug-resistant Staphylococci and Enterococci; assay: spectrum of antimicrobial activity; type: cell-based

What does the source list for “mutacin I: lantibiotic from Streptococcus mutans CH43, twenty-four amino acids in its mature form, approximately 2364 Da (FSSLSLCSLGCTGVKNPSFNSYCC)”?
antimicrobial activity (Group A streptococci): equal activities; pH range of activity: works in a wide range of pH; antimicrobial activity (pneumococci): equal activities; antimicrobial activity (enterococci): equal activities; hydrophobicity [1]: more hydrophobic than mutacin III; resistance of sensitive bacteria [2]: resistance to mutacin has not been observed; spectrum of antimicrobial activity [2]: wide spectrum of antimicrobial activity
